Results taken from publication PMC9865890, “N-Derivatives of (Z)-Methyl 3-(4-Oxo-2-thioxothiazolidin-5-ylidene)methyl)-1H-indole-2-carboxylates as Antimicrobial Agents—In Silico and In Vitro Evaluation” (Pharmaceuticals, 2023).
Converted amounts (≈) assume the structure as drawn. Like-named read-outs stand apart in the source and are kept apart here.

How the values were obtained:
[1] = tested on: Bacillus cereus (clinical isolate); assay: Antibacterial microdilution (MIC/MBC); format: cell-based; settings: Bacillus cereus, B.c. (B. cereus); for MIC: read-out: MIC
Procedure: (§1) The synthesized compounds (Table 1) were evaluated for their antibacterial activity against a panel of eight species using a microdilution method with ampicillin and streptomycin as reference drugs. […] The order of activity can be presented as: 8 > 11 > 2 > 1 > 12 > 3 > 17 > 7 > 5 > 13 > 14 > 16 > 9 > 4 = 6 > 15 > 10. […] Cloacae. […] The most sensitive bacteria appeared to be En. cloacae, while E. coli was the most resistant one, followed by M. flavus.
(§2) The following Gram-negative bacteria: Escherichia coli (ATCC 35210), Enterobacter cloacae (clinical isolate), Salmonella typhimurium (ATCC 13311), as well as Gram-positive bacteria: Listeria monocytogenes (NCTC 7973), Bacillus cereus (clinical isolate), and Staphylococcus aureus (ATCC 6538) were used. The organisms were obtained from the Mycological Laboratory, Department of Plant Physiology, Institute for Biological Research “Siniša Stankovic”, Belgrade, Serbia. The minimum inhibitory (MIC) and minimum bactericidal (MBC) concentrations were determined by the modified microdilution method, as previously reported.

[2] = tested on: Enterobacter cloacae (clinical isolate); assay: Antibacterial microdilution (MIC/MBC); format: cell-based; settings: Enterobacter cloacae, En.cl (En. cloacae); for MIC: read-out: MIC
Procedure: as §1, §2

[3] = tested on: Escherichia coli (ATCC 35210); assay: Antibacterial microdilution (MIC/MBC); format: cell-based; settings: Escherichia coli, ATCC35210, E. coli; for MIC: read-out: MIC
Procedure: as §1, §2

[4] = tested on: Listeria monocytogenes (NCTC 7973); assay: Antibacterial microdilution (MIC/MBC); format: cell-based; settings: Listeria monocytogenes, NCTC7973, L.m. (L. monocytogenes); for MIC: read-out: MIC
Procedure: as §1, §2

M. flavus = assay: Antibacterial microdilution (MIC/MBC); format: cell-based; settings: Micrococcus flavus; M.f. (M. flavus)
Procedure: as §1, §2

P. aeruginosa = assay: Antibacterial microdilution (MIC/MBC); format: cell-based; settings: Pseudomonas aeruginosa, P.a. (P. aeruginosa); for MIC: read-out: MIC
Procedure: as §1, §2

[5] = tested on: Salmonella typhimurium (ATCC 13311); assay: Antibacterial microdilution (MIC/MBC); format: cell-based; settings: Salmonella enterica, S.t. (S. typhimurium); for MIC: read-out: MIC
Procedure: as §1, §2

[6] = tested on: Staphylococcus aureus (ATCC 6538); assay: Antibacterial microdilution (MIC/MBC); format: cell-based; settings: S.a. (S. aureus)
Procedure: as §1, §2

A. ochraceus = assay: Antifungal bioassay (MIC/MFC); format: cell-based; settings: Aspergillus ochraceus, A.o. (A. ochraceus); for MIC: read-out: MIC
Procedure: (§3) For the antifungal bioassays, six fungi were used: […] The organisms were obtained from the Mycological Laboratory, Department of Plant Physiology, Institute for Biological Research “Siniša Stankovic”, Belgrade, Serbia. All experiments were performed in duplicate.

[7] = tested on: Aspergillus fumigatus (ATCC 1022); assay: Antifungal bioassay (MIC/MFC); format: cell-based; settings: ATCC1022, A.f. (A. fumigatus)
Procedure: as §3

[8] = tested on: Aspergillus niger (ATCC 6275); assay: Antifungal bioassay (MIC/MFC); format: cell-based; settings: ATCC6275, A.n. (A. niger)
Procedure: as §3

[9] = tested on: Aspergillus versicolor (ATCC 11730); assay: Antifungal bioassay (MIC/MFC); format: cell-based; settings: ATCC11730, A.v. (A. versicolor)
Procedure: as §3

P. ochrochloron = assay: Antifungal bioassay (MIC/MFC); format: cell-based; settings: Penicillium ochrochloron; for MFC: P.o. (P. ochrochloron); for MIC: P.o. (P. ochrochloron; text: P. ochramensis), read-out: MIC
Procedure: as §3

[10] = tested on: Penicillium funiculosum (ATCC 36839); assay: Antifungal bioassay (MIC/MFC); format: cell-based; settings: Talaromyces funiculosus, ATCC36839; P.f. (P. funiculosum)
Procedure: as §3

[11] = tested on: Penicillium verrucosum var. cyclopium (food isolate); assay: Antifungal bioassay (MIC/MFC); format: cell-based
Procedure: For the antifungal bioassays, six fungi were used: Aspergillus niger (ATCC 6275), Aspergillus fumigatus (ATCC 1022), Aspergillus versicolor (ATCC 11730), Penicillium funiculosum (ATCC 36839), Trichoderma viride (IAM 5061), and Penicillium verrucosum var. cyclopium (food isolate). The organisms were obtained from the Mycological Laboratory, Department of Plant Physiology, Institute for Biological Research “Siniša Stankovic”, Belgrade, Serbia. All experiments were performed in duplicate.

[12] = Staphylococcus aureus, ATCC6538
[13] = Staphylococcus aureus, ATCC6538, read-out: MIC

Row | Structure (SMILES) | MBC [1] [µg/mL] | MIC [1] [µg/mL] | MBC [2] [µg/mL] | MIC [2] [µg/mL] | MBC [3] [µg/mL] | MIC [3] [µg/mL] | MBC [4] [µg/mL] | MIC [4] [µg/mL] | MBC (M. flavus) [µg/mL] | MIC (M. flavus) [µg/mL] | MBC (P. aeruginosa) [µg/mL] | MIC (P. aeruginosa) [µg/mL] | MBC [5] [µg/mL] | MIC [5] [µg/mL] | MBC [6, 12] [µg/mL] | MIC [6, 13] [µg/mL] | MFC (A. ochraceus) [µg/mL] | MIC (A. ochraceus) [µg/mL] | MFC [7] [µg/mL] | MIC [7] [µg/mL] | further results
1 | COC(=O)c1[nH]c2cc(OC)ccc2c1/C=C1\SC(=S)N(c2cccc(F)c2)C1=O [Compound 13, (Z)-methyl 3-((3-(3-fluorophenyl)-4-oxo-2-thioxothiazolidin-5-ylidene)methyl)-6-methoxy-1H-indole-2-carboxylate] | 60 ± 6 (≈ 136 µM) | 30 ± 10 (≈ 67.8 µM) | 30 ± 10 (≈ 67.8 µM) | 15 ± 9 (≈ 33.9 µM) | 60 ± 6 (≈ 136 µM) | 45 ± 3 (≈ 102 µM) | 60 ± 6 (≈ 136 µM) | 30 ± 10 (≈ 67.8 µM) | 60 ± 6 (≈ 136 µM) | 45 ± 3 (≈ 102 µM) | 60 ± 6 (≈ 136 µM) | 30 ± 10 (≈ 67.8 µM) | 60 ± 6 (≈ 136 µM) | 30 ± 10 (≈ 67.8 µM) | 30 ± 10 (≈ 67.8 µM) | 15 ± 9 (≈ 33.9 µM) | 15 ± 3 (≈ 33.9 µM) | 8 ± 0.6 (≈ 18.1 µM) | 120 ± 40 (≈ 271 µM) | 60 ± 6 (≈ 136 µM) | MFC [8]: 30 ± 10 µg/mL (≈ 67.8 µM); MIC [8]: 15 ± 3 µg/mL (≈ 33.9 µM); MFC [9]: 30 ± 10 µg/mL (≈ 67.8 µM); MIC [9]: 15 ± 3 µg/mL (≈ 33.9 µM); MFC (P. ochrochloron): 30 ± 10 µg/mL (≈ 67.8 µM); MIC (P. ochrochloron): 15 ± 3 µg/mL (≈ 33.9 µM); MFC [10]: 30 ± 10 µg/mL (≈ 67.8 µM); MIC [10]: 15 ± 3 µg/mL (≈ 33.9 µM); MFC [11]: 30 ± 10 µg/mL (≈ 67.8 µM); MIC [11]: 15 ± 3 µg/mL (≈ 33.9 µM); melting point: 238 to 240 °C
2 | COC(=O)c1[nH]c2ccc(F)cc2c1/C=C1\SC(=S)N(CCC(=O)O)C1=O [Compound 14, (Z)-3-(5-((5-fluoro-2-(methoxycarbonyl)-1H-indol-3-yl)methylene)-4-oxo-2-thioxothiazolidin-3-yl)propanoic acid] | 60 ± 6 (≈ 147 µM) | 30 ± 10 (≈ 73.5 µM) | 30 ± 10 (≈ 73.5 µM) | 15 ± 9 (≈ 36.7 µM) | 60 ± 6 (≈ 147 µM) | 45 ± 3 (≈ 110 µM) | 60 ± 6 (≈ 147 µM) | 45 ± 3 (≈ 110 µM) | 60 ± 6 (≈ 147 µM) | 45 ± 3 (≈ 110 µM) | 30 ± 10 (≈ 73.5 µM) | 15 ± 9 (≈ 36.7 µM) | 60 ± 6 (≈ 147 µM) | 45 ± 3 (≈ 110 µM) | 60 ± 6 (≈ 147 µM) | 30 ± 10 (≈ 73.5 µM) | 30 ± 10 (≈ 73.5 µM) | 15 ± 3 (≈ 36.7 µM) | 120 ± 40 (≈ 294 µM) | 60 ± 6 (≈ 147 µM) | MFC [8]: 30 ± 10 µg/mL (≈ 73.5 µM); MIC [8]: 15 ± 3 µg/mL (≈ 36.7 µM); MFC [9]: 30 ± 10 µg/mL (≈ 73.5 µM); MIC [9]: 15 ± 3 µg/mL (≈ 36.7 µM); MFC (P. ochrochloron): 30 ± 10 µg/mL (≈ 73.5 µM); MIC (P. ochrochloron): 15 ± 3 µg/mL (≈ 36.7 µM); MFC [10]: 30 ± 10 µg/mL (≈ 73.5 µM); MIC [10]: 15 ± 3 µg/mL (≈ 36.7 µM); MFC [11]: 30 ± 10 µg/mL (≈ 73.5 µM); MIC [11]: 15 ± 3 µg/mL (≈ 36.7 µM); melting point: 275 to 276 °C
3 | COC(=O)c1[nH]c2ccccc2c1/C=C1\SC(=S)N(CCC(=O)O)C1=O [Compound 17, (Z)-3-(5-((2-(methoxycarbonyl)-1H-indol-3-yl)methylene)-4-oxo-2-thioxothiazolidin-3-yl)propanoic acid] | 60 ± 6 (≈ 154 µM) | 30 ± 10 (≈ 76.8 µM) | 15 ± 9 (≈ 38.4 µM) | 8 ± 0.6 (≈ 20.5 µM) | 60 ± 6 (≈ 154 µM) | 45 ± 3 (≈ 115 µM) | 60 ± 6 (≈ 154 µM) | 30 ± 10 (≈ 76.8 µM) | 60 ± 6 (≈ 154 µM) | 30 ± 10 (≈ 76.8 µM) | 15 ± 9 (≈ 38.4 µM) | 8 (≈ 20.5 µM) | 60 ± 6 (≈ 154 µM) | 30 ± 10 (≈ 76.8 µM) | 15 (≈ 38.4 µM) | 8 (≈ 20.5 µM) | 15 ± 3 (≈ 38.4 µM) | 8 ± 0.6 (≈ 20.5 µM) | 120 ± 40 (≈ 307 µM) | 60 ± 6 (≈ 154 µM) | MIC [6]: 8 ± 0.6 µg/mL (≈ 20.5 µM); MFC [8]: 15 ± 3 µg/mL (≈ 38.4 µM); MIC [8]: 22 ± 5 µg/mL (≈ 56.3 µM); MFC [9]: 30 ± 10 µg/mL (≈ 76.8 µM); MIC [9]: 15 ± 3 µg/mL (≈ 38.4 µM); MFC (P. ochrochloron): 30 ± 10 µg/mL (≈ 76.8 µM); MIC (P. ochrochloron): 15 ± 3 µg/mL (≈ 38.4 µM); MFC [10]: 30 ± 10 µg/mL (≈ 76.8 µM); MIC [10]: 15 ± 3 µg/mL (≈ 38.4 µM); MFC [11]: 60 ± 6 µg/mL (≈ 154 µM); MIC [11]: 30 ± 10 µg/mL (≈ 76.8 µM); melting point: 265 to 266 °C
